Values quoted from earlier work, collected in patent publication US20130131091A1, “HARMFUL ORGANISM CONTROL AGENT” (priority 2010, published 2013).

Experiments:
[1] = test system: larvae of Helicoverpa zea
[2] = test system: Plutella xylostella L larvae

Measured: insecticidal activity

CC(=O)OCC1(C)C(OC(C)=O)CCC2(C)C1CC(OC(C)=O)C1(C)Oc3cc(-c4cccnc4)oc(=O)c3C(O)C21 (stereo not drawn) [pyripyropene A]
insecticidal activity: [1] | [2] | Tenebrio molitor L
